Data taken from ChEMBL document CHEMBL3751812, “Novel skeleton compound Allomyrinanoid A and two purine alkaloids from the adult of Allomyrina dichotoma L” (2016).

Tests used:
Format in all cases: functional
Conditions in all cases: read-out: DIZ
Escherichia coli = experiment: Antibacterial activity against Escherichia coli assessed as growth inhibition at 10 mg/ml by drug sensitive assay
Bacillus subtilis [1] = experiment: Antibacterial activity against Bacillus subtilis assessed as growth inhibition at 1 mg/ml by drug sensitive assay
Bacillus subtilis [2] = experiment: Antibacterial activity against Bacillus subtilis assessed as growth inhibition at 10 mg/ml by drug sensitive assay
Staphylococcus aureus [3] = experiment: Antibacterial activity against Staphylococcus aureus assessed as growth inhibition at 1 mg/ml by drug sensitive assay
Staphylococcus aureus [4] = experiment: Antibacterial activity against Staphylococcus aureus assessed as growth inhibition at 10 mg/ml by drug sensitive assay

| SMILES | zone of inhibition at 10000 µg/mL (Escherichia coli) [mm] | zone of inhibition at 1000 µg/mL (Bacillus subtilis [1]) [mm] | zone of inhibition at 10000 µg/mL (Bacillus subtilis [2]) [mm] | zone of inhibition at 1000 µg/mL (Staphylococcus aureus [3]) [mm] | zone of inhibition at 10000 µg/mL (Staphylococcus aureus [4]) [mm] |
| --- | --- | --- | --- | --- | --- |
| Nc1ncnc2c1ncn2/C=N\O (stereo in doubt; 2) | 5.5 |  |  |  |  |
| CC1(C)S[C@@H]2[C@H](NC(=O)Cc3ccccc3)C(=O)N2[C@H]1C(=O)O [PENICILLIN G] |  | 10 | 18 | 9 | 17 |
| CNC(=O)[C@H]1CCC[C@@H](C(=O)O)[C@@H](C)[C@H](C)[C@H](C)[C@@H]1C |  |  | 4.5 |  |  |
